Experimental data taken from patent EP4790066A1, “GLP-1R/GIPR/GCGR TRIPLE AGONIST ANALOGUE AND USE THEREOF” (Shenzhen Bay Laboratory, priority 2023, dated 2025).

Assays:
GCGR [1] = biological target: T1, GCGR (Homo sapiens, UniProt P47871); assay: cAMP method (HTRF cAMP detection kit), HEK293/pGM-CREB-L-Luc/GCG pool; assay type: cell-based; conditions: read-out: EC50 (pM) for each receptor GCGR
T1 construct: expressed in transfected cells
Protocol: (§1) 2. Insulinotropic analogues can bind to target receptors on the cell membrane, activate the receptors, and induce release. The activity of the test substance can be determined using the HTRF method with a cAMP detection kit. Therefore, the cAMP method can be used to detect the target peptide derivatives (or polypeptide derivatives, i.e., TG1-TG86) prepared in Example 1 and Example 2. […] The test cell line was selected, treated with cAMP-specific trypsin for digestion. 3 mL of serum-free DMEM culture medium was added, and the cells were pipetted, resuspended, and counted. 5 µL of IBMX (prepared with serum-free DMEM medium, 0.5 mM) and test cells (5 µL/7500 cells/well) were added in a 384-well plate sequentially. The plate was incubated at 37°C under 5% CO2 for 30 min, followed by the addition of cAMP-d2 (5 µL, 1x) and Anti-cAMP-Cryptate (5 µL, 1x). The mixture was kept at room temperature for 1 h, after which the HTRF value was measured using a chemiluminescent microplate reader, and the determination result was recorded. […] Table 4: EC50 values for target peptide derivatives

GIPR [2] = biological target: T2, GIPR (Homo sapiens, UniProt P48546); assay: cAMP method (HTRF cAMP detection kit), HEK293/pGM-CREB-L-Luc/GIP pool; assay type: cell-based; conditions: read-out: EC50 (pM) for each receptor GIPR
T2 construct: expressed in transfected cells
T2 sequence (P48546 22-466): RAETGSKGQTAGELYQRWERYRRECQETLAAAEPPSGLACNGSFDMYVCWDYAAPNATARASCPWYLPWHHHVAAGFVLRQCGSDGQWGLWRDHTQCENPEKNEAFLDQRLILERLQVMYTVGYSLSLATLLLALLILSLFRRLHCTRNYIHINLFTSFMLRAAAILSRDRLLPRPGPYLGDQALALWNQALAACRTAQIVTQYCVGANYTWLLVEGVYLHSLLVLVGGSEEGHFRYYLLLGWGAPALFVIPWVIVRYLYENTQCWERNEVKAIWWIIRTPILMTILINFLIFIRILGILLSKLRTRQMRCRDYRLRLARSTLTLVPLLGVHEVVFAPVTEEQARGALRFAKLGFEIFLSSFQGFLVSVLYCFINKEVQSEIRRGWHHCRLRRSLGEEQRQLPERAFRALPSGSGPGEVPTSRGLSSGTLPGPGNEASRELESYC
Protocol: as §1

GIPR [3] = biological target: T2, GIPR; assay: CreLuc method (CRE-luciferase reporter), HEK293/pGM-CREB-L-Luc/GIPR pool; assay type: cell-based; conditions: 6 h incubation, read-out: EC50 (pM) for each receptor GIPR
In short: (§2)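 Stable HEK293 pools co-expressing each receptor with a CRE-luciferase reporter were plated at 20,000 cells/well in freestyle medium and treated with compound dilution series for 6 h at 37 °C. Luminescence was read with ONE-GLO to derive EC50.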

in vivo = assay: in vivo; design: species or system male SD rats; conditions: rat
Protocol: The pharmacokinetic behavior of target peptide derivatives (or polypeptide derivatives) prepared in Example 1 and Example 2, i.e., TG1-TG94 in rodents was tested. The specific steps are as follows:
The target peptide derivatives (TG1-TG94) to be tested were administered to male SD rats via subcutaneous injection (SC, 3 mg/kg; drug vehicle: PBS, concentration: 1.5 mg/mL; administration volume: 2 mL) and intravenous injection (IV, 1 mg/kg; drug vehicle: PBS, concentration: 0.5 mg/mL; administration volume: 2 mL) as a single dose, respectively. Whole blood samples were collected from the jugular vein or other appropriate vein at the following time points after administration: for SC, 15 min, 30 min, 1 h, 2 h, 4 h, 6 h, 8 h, 24 h, 48 h, 72 h, 96 h, 120 h, and 168 h; for IV, 5 min, 15 min, 30 min, 1 h, 2 h, 4 h, 8 h, 24 h, 48 h, 72 h, 96 h, 120 h, and 168 h. 0.2 mL of blood was collected and transferred into a labeled EDTA-K2 anticoagulant tube. The tube was gently inverted to ensure thorough mixing of the anticoagulant (EDTA-K2) with the blood and immediately placed on wet ice. Plasma separation was performed as soon as possible by centrifugation under the following conditions: 4°C, 6800xg, for 6 min. The plasma samples were stored in a refrigerator at no higher than -20°C and used for analysis when needed.
Under the condition of yellow light in an ice-water bath, except for blank samples, 300 µL of precipitant containing an internal standard was added to a 96-well plate containing 20 µL of standard curve sample, quality control sample, or unknown sample; 300 µL of acetonitrile was added to the blank sample. The mixture was vortexed, mixed well, and then centrifuged. 150 µL of the supernatant after centrifugation was transferred to a new 96-well plate, and 150 µL of ultrapure water was added and mixed well. The above samples were subjected to quantitative analysis using LC-MS analysis with XB-C18 (2.1 * 100 mm, 3 µm) chromatography for gradient elution. The mobile phases used were: mobile phase A = 0.1% formic acid-water; mobile phase B = acetonitrile. Phoenix WinNonlin software was used to calculate the pharmacokinetic parameters. […] Table 5A: Pharmacokinetic parameters of target peptide derivatives

GCGR [4] = biological target: T1, GCGR; assay: CreLuc method (CRE-luciferase reporter), 293HEK/pGM-CREB-L-Luc/GCGR pool; assay type: cell-based; conditions: 6 h incubation, read-out: EC50 (pM) for each receptor GCGR
In short: as §2

GLP-1R [5] = biological target: T3, GLP-1R (Homo sapiens, UniProt P43220); assay: CreLuc method (CRE-luciferase reporter), HEK293/pGM-CREB-L-Luc/GLP-1R pool; assay type: cell-based; conditions: 6 h incubation, read-out: EC50 (pM) for each receptor GLP-1R
T3 construct: expressed in transfected cells
T3 sequence (P43220 24-463, species assumed): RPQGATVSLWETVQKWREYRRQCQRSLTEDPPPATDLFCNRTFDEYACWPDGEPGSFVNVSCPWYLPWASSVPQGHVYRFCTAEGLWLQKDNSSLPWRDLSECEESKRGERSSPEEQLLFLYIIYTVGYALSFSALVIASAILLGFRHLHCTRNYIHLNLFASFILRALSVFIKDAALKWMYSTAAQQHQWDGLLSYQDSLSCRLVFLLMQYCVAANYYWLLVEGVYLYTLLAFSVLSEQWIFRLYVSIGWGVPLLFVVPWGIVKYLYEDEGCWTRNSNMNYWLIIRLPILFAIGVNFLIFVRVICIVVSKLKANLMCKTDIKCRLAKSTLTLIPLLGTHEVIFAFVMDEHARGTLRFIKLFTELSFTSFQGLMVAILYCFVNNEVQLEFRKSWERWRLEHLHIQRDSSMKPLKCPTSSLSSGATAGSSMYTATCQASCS
In short: as §2

GLP-1R [6] = biological target: T3, GLP-1R; assay: cAMP method (HTRF cAMP detection kit), HEK293/pGM-CREB-L-Luc/GLP-1 pool; assay type: cell-based; conditions: read-out: EC50 (pM) for each receptor GLP-1R
Protocol: as §1

T1 sequence (P47871 26-477, species assumed): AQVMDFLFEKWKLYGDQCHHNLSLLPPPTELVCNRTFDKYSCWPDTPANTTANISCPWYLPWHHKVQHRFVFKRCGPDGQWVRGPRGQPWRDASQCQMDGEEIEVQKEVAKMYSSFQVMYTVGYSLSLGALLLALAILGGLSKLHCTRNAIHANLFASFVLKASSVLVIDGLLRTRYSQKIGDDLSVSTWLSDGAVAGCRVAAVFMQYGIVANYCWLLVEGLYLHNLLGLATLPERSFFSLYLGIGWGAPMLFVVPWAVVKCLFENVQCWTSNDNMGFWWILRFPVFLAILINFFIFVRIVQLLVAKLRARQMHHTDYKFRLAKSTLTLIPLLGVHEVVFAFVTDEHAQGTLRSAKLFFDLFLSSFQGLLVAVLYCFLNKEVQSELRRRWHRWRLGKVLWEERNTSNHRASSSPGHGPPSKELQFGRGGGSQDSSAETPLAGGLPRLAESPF

## CC[C@H](C)[C@@H]1NC(=O)[C@H](Cc2ccccc2)NC(=O)[C@@H](NC(=O)C(C)(C)NC(=O)[C@H](CCC(N)=O)NC(=O)[C@H](C)NC(=O)[C@H](CCCCNC(C)=O)NC(=O)[C@H](CCCCN)NC(=O)[C@H](CC(=O)O)NC(=O)[C@H](CC(C)C)NC(=O)[C@](C)(CC(C)C)NC(=O)[C@@H](NC(=O)[C@H](CO)NC(=O)[C@H](Cc2ccc(O)cc2)NC(=O)[C@H](CC(=O)O)NC(=O)[C@H](CO)NC(=O)[C@@H](NC(=O)[C@H](Cc2ccccc2F)NC(=O)[C@@H](NC(=O)CNC(=O)[C@H](CCC(N)=O)NC(=O)C(C)(C)NC(=O)[C@@H](N)Cc2ccc(O)cc2)[C@@H](C)O)[C@@H](C)O)[C@@H](C)CC)CSCC(=O)NCCN(C(=O)CCC(=O)NCCOCCOCC(=O)NCCOCCOCC(=O)NCCCC[C@H](NC(=O)CCCCCCCCCCCCCCCCCCC(=O)O)C(=O)O)CCNC(=O)CSC[C@@H](C(=O)NCC(=O)NCC(=O)N2CCC[C@H]2C(=O)N[C@@H](CO)C(=O)N[C@@H](CO)C(=O)NCC(=O)N[C@@H](C)C(=O)N2CCC[C@H]2C(=O)N2CCC[C@H]2C(=O)N2CCC[C@H]2C(=O)N[C@@H](CO)C(N)=O)NC(=O)[C@H](CC(C)C)NC(=O)[C@H](CC(C)C)NC(=O)[C@H](Cc2ccc(O)cc2)NC(=O)[C@H](CCC(=O)O)NC1=O [TG40]
GCGR [1]
  EC50: 2.1 pM
GIPR [2]
  EC50: 3.1 pM
GIPR [3]
  EC50: 12.5 pM
In vivo; male, SD, iv, 1 mg/kg
  AUC(0-inf): 165 µg·h/mL
  AUC(0-t): 164 µg·h/mL
  MRT: 22.1 h
  Vd: 0.134 L/kg
  clearance: 0.101 mL/min/kg
  half-life: 15 h
In vivo; male, SD, sc
  bioavailability: 50%
In vivo; male, SD, sc, 3 mg/kg
  AUC(0-inf): 248 µg·h/mL
  AUC(0-t): 247 µg·h/mL
  CL/F: 0.205 mL/min/kg
  Cmax: 4770 ng/mL
  MRT: 36.9 h
  Tmax: 24 h
  half-life: 13.1 h
In vivo; iv, 1 mg/kg
  AUC0-t /AUC0-inf: 0.997
  Kel: 0.0462 h⁻¹
In vivo; sc, 3 mg/kg
  AUC0-t /AUC0-inf: 0.996
  Vz/F: 0.232 L/kg
GCGR [4]
  EC50: 92.9 pM
GLP-1R [5]
  EC50: 33.9 pM

## CC[C@H](C)[C@@H]1NC(=O)[C@H](Cc2ccccc2)NC(=O)[C@@H](NC(=O)C(C)(C)NC(=O)[C@H](CCC(N)=O)NC(=O)[C@H](C)NC(=O)[C@H](CCCCNC(C)=O)NC(=O)[C@H](CCCCN)NC(=O)[C@H](CC(=O)O)NC(=O)[C@H](CC(C)C)NC(=O)[C@](C)(CC(C)C)NC(=O)[C@@H](NC(=O)[C@H](CO)NC(=O)[C@H](Cc2ccc(O)cc2)NC(=O)[C@H](CC(=O)O)NC(=O)[C@H](CO)NC(=O)[C@@H](NC(=O)[C@H](Cc2ccccc2)NC(=O)[C@@H](NC(=O)CNC(=O)[C@H](CCC(N)=O)NC(=O)C(C)(C)NC(=O)[C@@H](N)Cc2ccc(O)cc2)[C@@H](C)O)[C@@H](C)O)[C@@H](C)CC)CSCC(=O)NCCN(C(=O)CCC(=O)NCCOCCOCC(=O)NCCOCCOCC(=O)NCCCC[C@H](NC(=O)CCCCCCCCCCCCCCCCCCC(=O)O)C(=O)O)CCNC(=O)CSC[C@@H](C(=O)NCC(=O)NCC(=O)N2CCC[C@H]2C(=O)N[C@@H](CO)C(=O)N[C@@H](CO)C(=O)NCC(=O)N[C@@H](C)C(=O)N2CCC[C@H]2C(=O)N2CCC[C@H]2C(=O)N2CCC[C@H]2C(=O)N[C@@H](CO)C(N)=O)NC(=O)[C@H](CC(C)C)NC(=O)[C@H](CC(C)C)NC(=O)[C@H](Cc2c[nH]c3ccccc23)NC(=O)[C@H](CCC(=O)O)NC1=O [TG28]
GCGR [1]
  EC50: 83.7 pM
GLP-1R [6]
  EC50: 2.2 pM
GIPR [3]
  EC50: 30 pM
GCGR [4]
  EC50: 482 pM
GLP-1R [5]
  EC50: 60.2 pM
